Key:
[1] = test system: GR translocation in RN46A-B14 cells; assay: DEX-induced GR-GFP translocation, high-content imaging; type: cell-based, rat; conditions: 2.5 μM for 1 hour, then 1 μM DEX 30 min, p<0.05 vs. vehicle
[2] = test system: histone acetylation in brain; conditions: at the dose used in present study (5 mg/kg i.p.); cited from earlier work
[3] = test system: Hsp90 / α-tubulin acetylation and Hsp90-FKBP51/52 association; assay: Co-immunoprecipitation and acetylation blots in RN46 serotonin cell line; type: cell-based, rat; conditions: 2.5 uM, RN46 cells, vs vehicle
[4] = test system: plasma corticosterone (HPA axis); assay: Combined DEX/CRF test, plasma corticosterone; type: in vivo, mouse

| Compound | GR translocation induced by dexamethasone [1] | histone acetylation in brain [2] | association of Hsp90 with FKBP51 ([3]; co-IP) | interaction of Hsp90 with FKBP52 ([3]; co-IP) | acetylation of α-tubulin ([3]; input samples) | acetylation of Hsp90 at lysine 294 [3] | CORT response following DEX/CRF challenge ([4]; chronic ACY-738 treatment, data not shown) | percent change in plasma corticosterone, resilient mice ([4]; 6 hours after DEX 0.05 mg/kg, CSDS resilient mice) [%] | percent change in plasma corticosterone, control mice ([4]; 6 hours after DEX 0.05 mg/kg, undefeated control mice) [%] |
| --- | --- | --- | --- | --- | --- | --- | --- | --- | --- |
| CN1CCc2c(c3ccccc3n2Cc2ccc(C(=O)NO)cc2)C1 [Tubastatin A] | significantly reduced | – | – | – | – | – | – | – | – |
| O=C(NO)c1cnc(NC2(c3ccccc3)CC2)nc1 [ACY-738] | significantly reduced | does not elevate | increased association | reduced interaction | increase | increased acetylation | did not alter | – | – |
| C[C@@H]1C[C@H]2[C@@H]3CCC4=CC(=O)C=C[C@]4(C)[C@@]3(F)[C@@H](O)C[C@]2(C)[C@@]1(O)C(=O)CO [dexamethasone] | – | – | – | – | – | – | – | −34 | −13 |

Reference: PMC4297530 (Biological psychiatry, 2014)
